Measured values taken from paper PMC9295539 (Antimicrobial Agents and Chemotherapy, 2022).
Where two headings read alike, the source gives them in different places.

Experiments:
[1] = tested on: G. lamblia CBG99 (assemblage A); experiment: G. lamblia CBG99 luciferase strain cell growth inhibition assay; format: cell-based, Giardia lamblia; conditions: G. lamblia CBG99, compound at 5 μM; for inhibition at 5 µM: Giardia duodenalis
Procedure: Subsequent assays, including the mouse model of infection, used the G. lamblia click beetle green (CBG99) strain, which was grown and assayed as previously described ([11], [49]).
In vitro reconfirmation and expanded tests against EGFR-TKIs using the G. lamblia CBG99 strain were performed as previously described ([11]). […] The PK studies were performed in groups of 3 mice per compound. […] All animal experiments were approved by the Institutional Animal Care and Use Committees at the University of Washington.

[2] = tested on: Giardia lamblia GS clone H7; experiment: G. lamblia GS clone H7 trophozoite growth, ATP-based bioluminescence assay (BacTiter-Glo), 1,536-well; format: cell-based; conditions: for EC50: Giardia duodenalis, 48 h, read-out: 48-h Giardia GS clone H7 EC50; for Selectivity index (CC50/EC50): HEK293T CC50 / G. lamblia GS clone H7 EC50
Procedure: (§1) Compounds were screened at 5 μM with metronidazole (40 μM) as an inhibitor control and dimethyl sulfoxide (DMSO) as a neutral control. […] These primary hits were immediately assayed for reconfirmation and mammalian cytotoxicity against HEK293T cells in an 8-point dose-response format.
The primary screen was conducted at 5 μM. […] All source plates were 384-well acoustic, transfer-compatible plates with compounds prediluted in DMSO at either 2 mM or 10 mM. […] Primary screening was done with a single replicate, whereas dose-response testing was carried out in triplicate.
To prevent attachment to the bottle and tubing of the dispenser cassette, the bottle containing the culture was kept on ice throughout the dispensing process. […] The bags were heat sealed and the anaerobic generator was activated according to the manufacturer’s instructions. […] Luminescence was read on a ViewLux uHTS microplate imager (PerkinElmer) with medium-sensitivity luminescence at 30 s of exposure.
(§2) Relative luminescence unit (RLU) values were analyzed in Genedata Screener (v13.0-Standard). RLU values were normalized to neutral controls minus inhibitors (DMSO-treated wells minus metronidazole-treated wells). For single-point primary assay plates, an additional run-wise median correction was applied to reduce screen artifacts, whereas no corrections were applied to triplicate dose-response plates. For the mammalian cytotoxicity assays, RLU values were uploaded into Genedata Screener, and the data were normalized to those for DMSO-treated wells minus puromycin-treated wells.

[3] = HEK293T cytotoxicity counterscreen, luminescent ATP viability assay; conditions: human
Procedure: as §1
Experimental details for the assays were described previously ([50]). […] Assays were performed as previously reported ([51]).
as §2

[4] = 8-point dose response, triplicate

Row | SMILES | EC50 [2, 4] [µM] | Selectivity index (CC50/EC50) [2] | CC50 at 72 h ([3]; HEK293T cells) [µM] | other results
1 | C=CC(=O)Nc1cccc(Nc2nc(Nc3ccc(N4CCN(C(C)=O)CC4)cc3OC)ncc2C(F)(F)F)c1 [rociletinib] |  |  |  | inhibition at 5 µM [1]: ≤ 50%
2 | CC(=O)Oc1ccccc1C(=O)Nc1ncc([N+](=O)[O-])s1 [Nitazoxanide] | 6.45 ± 0.11 | >4 | > 25 | 
3 | C=CC(=O)Nc1ccc2ncnc(Nc3cccc(Br)c3)c2c1 [PD168393] |  |  |  | inhibition of G. lamblia growth [1]: ≤ 50%
4 | CCCN(CCC)c1ccc(/N=N/c2ccccc2C(=O)O)cc1 [Propyl red] | 5.78 ± 0.07 | >4 | > 25 | 
5 | CN(C)C/C=C/C(=O)Nc1cc2c(Nc3ccc(F)c(Cl)c3)ncnc2cc1O[C@H]1CCOC1 [afatinib] |  |  |  | inhibition at 5 µM [1]: ≤ 50%
6 | CC(=O)Nc1ncc([N+](=O)[O-])s1 [Aminitrozole] | 7.11 ± 0.28 | >3 | > 25 | 
7 | O=C1NCCN1c1ncc([N+](=O)[O-])s1 [Niridazole] | 6.42 ± 0.06 | >4 |  | CC50 at 72 h [3]: > 25 µM
8 | CS(=O)(=O)OCCN(CCBr)c1c(C(=O)NCCOP(=O)(O)O)cc([N+](=O)[O-])cc1[N+](=O)[O-] [PR-104] |  | >13 |  | EC50 [2]: 1.98 ± 0.07 µM; CC50 at 72 h [3]: > 25 µM
9 | N#CC(C#N)=Cc1ccc(O)c(O)c1 [AG-18] |  |  |  | inhibition of G. lamblia growth [1]: ≤ 50%
10 | Cn1c([N+](=O)[O-])cnc1/C=C/c1ccnc(N)n1 [Azanidazole] | 0.72 ± 0.06 | >35 | > 25 | 
11 | Cc1ncc([N+](=O)[O-])n1CC(O)CCl (stereo not drawn) [Ornidazole] | 1.82 ± 0.04 | >14 |  | CC50 at 72 h [3]: > 25 µM
12 | Cn1c([N+](=O)[O-])cnc1N1CCN(S(C)(=O)=O)C1=O [Satranidazole] | 2.49 ± 0.04 | >10 | > 25 | 
13 | CCOc1cc2ncc(C#N)c(Nc3ccc(OCc4ccccn4)c(Cl)c3)c2cc1NC(=O)/C=C/CN(C)C [neratinib] |  |  |  | inhibition at 5 µM [1]: ≤ 50%
14 | Cc1ncc([N+](=O)[O-])n1CCOC(=O)c1ccccc1 [Benzoyl metronidazole] | 2.43 ± 0.23 | >10 | > 25 | 
15 | N#C/C(=C\c1ccc(O)c(O)c1)C(=O)NCc1ccccc1 [AG-490] |  |  |  | inhibition of G. lamblia growth [1]: ≤ 50%
16 | Cc1ncc([N+](=O)[O-])n1CCc1ccncc1 [Panidazole] | 1.85 ± 0.68 | >14 | > 25 | 
17 | COC(=S)NCCn1c([N+](=O)[O-])cnc1C [Carnidazole] | 3.01 ± 0.06 | >8 | > 25 | 
18 | C#Cc1cccc(Nc2ncnc3cc(OCCOC)c(OCCOC)cc23)c1 [erlotinib] |  |  |  | inhibition at 5 µM [1]: ≤ 50%
19 | Cn1c([N+](=O)[O-])cnc1/C=N/N1CC(CN2CCOCC2)OC1=O (stereo not drawn) [Moxnidazole] | 6.11 ± 0.11 | >4 | > 25 | 
20 | O=[N+]([O-])c1ccc(-c2nc3ccccc3[nH]2)o1 [2-(5-Nitro-2-furyl) benzimidazole] | 5.8 ± 0.13 | >4 | > 25 | 
21 | CCS(=O)(=O)CCn1c([N+](=O)[O-])cnc1C [Tinidazole] | 5.7 ± 0.08 | >4 |  | CC50 at 72 h [3]: > 25 µM
22 | COc1cc2ncnc(Nc3ccc(F)c(Cl)c3)c2cc1NC(=O)/C=C/CN1CCCCC1 [dacomitinib] |  |  |  | inhibition at 5 µM [1]: ≤ 50%
23 | COc1cc2ncnc(Nc3cccc(Cl)c3)c2cc1OC [AG-1478] |  |  |  | inhibition of G. lamblia growth [1]: ≤ 50%
24 | CSc1ccc(OCc2ncc([N+](=O)[O-])n2C)cc1 [Fexinidazole] | 6.39 ± 0.16 | >4 | > 25 | 
25 | CS(=O)(=O)Nc1ccc(C(=O)O[C@@H](Cc2c(Cl)c[n+]([O-])cc2Cl)c2ccc(OC(F)F)c(OCC3CC3)c2)cc1OCC1CC1 [CHF-6001] | 2.03 ± 0.1 | >12 | > 25 | 
26 | Cc1ncc([N+](=O)[O-])n1CC(C)O (stereo not drawn) [Secnidazole] | 6.57 ± 0.09 | >4 |  | CC50 at 72 h [3]: > 25 µM
